Experimental data: patent US20250290117A1, “MOLECULAR PHENOTYPIC ANTIMICROBIAL SUSCEPTIBILITY TESTING” (priority 2024, published 2025)

Experiments:
Format in all cases: cell-based
Acinetobacter baumannii [1] = assay: Molecular phenotypic antimicrobial susceptibility test (extraction/DNA purification prior to PCR)
Experimental: Detection of Molecular Phenotypic Antimicrobial Susceptibility. Disclosed herein are the methods for the detection of phenotypic antimicrobial susceptibility via molecular methods. The present invention describes how a specimen 100 with a known microbial load is incubated and then exposed to a panel of antimicrobial agents to determine sensitivity (prevention of growth) or resistance (allowance of growth) to the specific antimicrobial agents tested utilizing molecular methods. Sample Collection. Specimens 100 are collected from patients using sterile collection processes that are employed in routine clinical care. Specimens are transported to the testing facility in boric acid preservative. […] The specimens 100 are put through a pathogen identification process using PCR technology (e.g., using the first sample 104). The process for pathogen isolation includes steps of harvesting the pathogen (e.g., via centrifugation), isolating pathogen DNA via a DNA isolation and/or purification kit, and performing PCR on the pathogen DNA via PCR components (e.g., primers, enzymes, buffers) as would be known to the skilled artisan. Simultaneously, an additional aliquot of the same specimen (e.g., the second sample 108) is placed with liquid culture media and incubated for 4-6 hours. This aliquot is used for antimicrobial susceptibility testing if indicated based on the pathogen detection results. […] Specimens 100 with lower pathogen loads could also be utilized in the antibiotic susceptibility phase of testing with or without a longer incubation period. […] Antimicrobial solutions are prepared at known concentrations. The specific antimicrobials and their concentrations are selected based on the pathogen of interest and the described antimicrobial resistance breakpoints for that specimen pathogen and antimicrobial combination. These antimicrobials have been selected based on those commonly utilized by healthcare providers in routine clinical care for the specific type of suspected infection. The number and types of antimicrobials utilized can be customized based on the infection source, pathogen detected, patient-specific factors such as allergies or other health conditions (e.g., chronic kidney disease or concurrent medication use), or healthcare provider preferences such as antimicrobial availability or cost. The antimicrobial solutions are prepared in liquid culture media (such as Muller Hinton Broth) to achieve the desired antimicrobial concentration and are then stored at −80° C. until use. For a given specimen, each antimicrobial is tested at a single or multiple antimicrobial concentration(s) which is its established breakpoints for sensitivity. The antimicrobial solutions are prepared and plated out for each specific pathogen. This allows ease of use on the day of testing after defrosting the plate 112. Table 1, which illustrates the results of molecular phenotypic antimicrobial susceptibility testing when more than one organism is present in the source specimen, provides an example of an antimicrobial plate 112 prepared for this purpose. Of note, control wells containing only culture media are present on all plates 112. This allows for evaluation of pathogen load when no antimicrobial is present. Specimen Exposure to Antimicrobial Agents. The 1 mL aliquot of the specimen 100 previously mixed with culture media and incubated is obtained. Using optical density measurements as a guide, the specimen 100 is diluted to 0.5 McFarland. The specimen 100 is then placed into the previously prepared antimicrobial susceptibility testing plate 112. Each plate 112 is prepared for a single specimen 100 for a specified pathogen based on its detection. For example, if the specimen 100 has more than one pathogen detected that needs different antimicrobial concentrations for exposure due to different minimum inhibitory concentration breakpoints for one or more organisms, then more than one antimicrobial exposure plate 112 may be needed. […]

Acinetobacter baumannii [2] = assay: Traditional culture-based antimicrobial susceptibility test
Source text: Table 2 illustrates the results of an example antimicrobial agent susceptibility test of the current application versus a traditional culture-based antimicrobial agent susceptibility test for […], in accordance with one or more embodiments of the disclosure. This specimen underwent extraction and/or DNA purification prior to PCR. As in Table 1, the results of the test of the current application are similar to the results from the traditional test.
(§1) Result Reporting to Healthcare Providers. The results from the antimicrobial exposure are reported to the ordering healthcare provider. This information can be utilized by the healthcare provider when selecting an antimicrobial regimen for their individual patient based on these individual specimen results and patient specific factors. […] The current standard of care for antimicrobial susceptibility testing involves the growth, isolation, and exposure of pathogens to antimicrobials. This traditional culture and sensitivity process can take multiple days to obtain results, limiting the ability of healthcare providers to receive timely results to make actionable changes in patient care or management. Healthcare providers desire a method to obtain antimicrobial susceptibility results with quicker turn-around-time. This application discloses a molecular-based phenotypic antimicrobial susceptibility method which involves pathogen exposure to a panel of antimicrobial agents at their specified minimum inhibitory concentration breakpoints for sensitivity. This method allows for more timely antimicrobial susceptibility results.

pathogen of the specimen = assay: Traditional culture-based antimicrobial susceptibility test (comparison of Table 7); conditions: E. coli isolate 1189
Experimental: as §1, with “Table 7 illustrates the results of an example antimicrobial agent susceptibility test of the current application versus a traditional culture-based antimicrobial agent susceptibility test at multiple incubation timepoints, in accordance with one or more embodiments of the disclosure. These specimens were tested with direct PCR (e.g., no extraction DNA purification step prior to PCR). […] Result” for “Result”

[3] = A. baumannii isolate 4, Ct at control (average) 18.061
[4] = A. baumannii isolate 4, at sensitive breakpoint
[5] = A. baumannii isolate 5, Ct at control (average) 18.191
[6] = A. baumannii isolate 5, at sensitive breakpoint
[7] = A. baumannii isolate 1, Ct at control (average) 18.811
[8] = A. baumannii isolate 1, at sensitive breakpoint
[9] = A. baumannii isolate 2, Ct at control (average) 18.763
[10] = A. baumannii isolate 2, at sensitive breakpoint
[11] = A. baumannii isolate 3, Ct at control (average) 18.799
[12] = A. baumannii isolate 3, at sensitive breakpoint

| Substance | Ct at Sensitive Breakpoint (Acinetobacter baumannii [1]; [3]) | Molecular Antimicrobial Susceptibility Result (Acinetobacter baumannii [1]; [4]) | Ct at Sensitive Breakpoint (Acinetobacter baumannii [1]; [5]) | Molecular Antimicrobial Susceptibility Result (Acinetobacter baumannii [1]; [6]) | Traditional Culture Result (Acinetobacter baumannii [2]; A. baumannii isolate 4) | Traditional Culture Result (Acinetobacter baumannii [2]; A. baumannii isolate 5) | Traditional Culture Result (pathogen of the specimen) | Ct at Sensitive Breakpoint (Acinetobacter baumannii [1]; [7]) | Molecular Antimicrobial Susceptibility Result (Acinetobacter baumannii [1]; [8]) | Ct at Sensitive Breakpoint (Acinetobacter baumannii [1]; [9]) | Molecular Antimicrobial Susceptibility Result (Acinetobacter baumannii [1]; [10]) | Ct at Sensitive Breakpoint (Acinetobacter baumannii [1]; [11]) | Molecular Antimicrobial Susceptibility Result (Acinetobacter baumannii [1]; [12]) | Traditional Culture Result (Acinetobacter baumannii [2]; A. baumannii isolate 1) | Traditional Culture Result (Acinetobacter baumannii [2]; A. baumannii isolate 2) | Traditional Culture Result (Acinetobacter baumannii [2]; A. baumannii isolate 3) |
| --- | --- | --- | --- | --- | --- | --- | --- | --- | --- | --- | --- | --- | --- | --- | --- | --- |
| Gentamicin | 19.380 | Sensitive (Antimicrobial wells with pathogen load detected below the control wells (typically >2 cycle thresholds later) may be reported as Sensitive) | 19.399 | Sensitive (Antimicrobial wells with pathogen load detected below the control wells (typically >2 cycle thresholds later) may be reported as Sensitive) | Sensitive | Sensitive | Sensitive |  |  |  |  |  |  |  |  |  |
| Piperacillin/Tazobactam | 16.207 | Resistant | 17.081 | Resistant | Resistant | Resistant | Sensitive | 17.127 | Resistant | 19.691 | Resistant | 18.647 | Resistant | Resistant | Resistant | Resistant |
| Trimethoprim/Sulfamethoxazole [TMP/SMX] | 23.297 | Sensitive (Antimicrobial wells with pathogen load detected below the control wells (typically >2 cycle thresholds later) may be reported as Sensitive) | 22.742 | Sensitive (Antimicrobial wells with pathogen load detected below the control wells (typically >2 cycle thresholds later) may be reported as Sensitive) | Sensitive | Sensitive | Sensitive | 22.888 | Sensitive (Antimicrobial wells with pathogen load detected below the control wells (typically >2 cycle thresholds later) may be reported as Sensitive) | 22.916 | Sensitive (Antimicrobial wells with pathogen load detected below the control wells (typically >2 cycle thresholds later) may be reported as Sensitive) | 22.407 | Sensitive (Antimicrobial wells with pathogen load detected below the control wells (typically >2 cycle thresholds later) may be reported as Sensitive) | Sensitive | Sensitive | Sensitive |
